Measured values taken from the NIST ThermoML archive (doi:10.1007/s10765-014-1730-1).
Numbers after ± are expanded uncertainties.

Conditions: Vibrating tube method; for mass density: Liquid; for specific volume: Gas

SMILES: F/C=C\C(F)(F)F [(Z)-1,3,3,3-tetrafluoro-1-propene]
- mass density (303.16 K, 217 kPa): 1209.4 ± 1.7 kg/m3
- mass density (303.16 K, 692 kPa): 1211.4 ± 1.7 kg/m3
- mass density (303.16 K, 2712 kPa): 1219.1 ± 1.7 kg/m3
- mass density (303.16 K, 5769 kPa): 1229.9 ± 1.7 kg/m3
- mass density (303.16 K, 6772 kPa): 1233.2 ± 1.7 kg/m3
- mass density (303.16 K, 9780 kPa): 1242.9 ± 1.7 kg/m3
- mass density (303.16 K, 11794 kPa): 1249 ± 1.7 kg/m3
- specific volume (308.15 K, 83.4 kPa): 0.259 ± 0.005 m3/kg
- specific volume (308.15 K, 115.8 kPa): 0.185 ± 0.003 m3/kg
- specific volume (308.15 K, 187.8 kPa): 0.111 ± 0.001 m3/kg
- specific volume (308.15 K, 194.6 kPa): 0.107 ± 0.001 m3/kg
- specific volume (308.15 K, 215.4 kPa): 0.095 ± 0.001 m3/kg
- specific volume (313.15 K, 84.9 kPa): 0.259 ± 0.005 m3/kg
- specific volume (313.15 K, 117.9 kPa): 0.185 ± 0.003 m3/kg
- specific volume (313.15 K, 191.5 kPa): 0.111 ± 0.001 m3/kg
- specific volume (313.15 K, 198.5 kPa): 0.107 ± 0.001 m3/kg
- mass density (313.15 K, 325 kPa): 1182 ± 1.7 kg/m3
- mass density (313.15 K, 777 kPa): 1184 ± 1.7 kg/m3
- mass density (313.15 K, 1789 kPa): 1188.5 ± 1.7 kg/m3
- mass density (313.15 K, 2791 kPa): 1192.7 ± 1.7 kg/m3
- mass density (313.15 K, 3819 kPa): 1196.9 ± 1.7 kg/m3
- mass density (313.15 K, 4846 kPa): 1201.1 ± 1.7 kg/m3
- mass density (313.15 K, 5847 kPa): 1204.9 ± 1.7 kg/m3
- mass density (313.15 K, 6862 kPa): 1208.7 ± 1.7 kg/m3
- mass density (313.15 K, 7865 kPa): 1212.3 ± 1.7 kg/m3
- mass density (313.15 K, 8867 kPa): 1215.8 ± 1.7 kg/m3
- mass density (313.15 K, 9876 kPa): 1219.3 ± 1.7 kg/m3
- mass density (313.15 K, 10884 kPa): 1222.7 ± 1.7 kg/m3
- mass density (313.15 K, 11896 kPa): 1226 ± 1.7 kg/m3
- mass density (313.15 K, 12909 kPa): 1229.2 ± 1.7 kg/m3
- mass density (313.15 K, 13913 kPa): 1232.4 ± 1.7 kg/m3
- mass density (313.15 K, 14924 kPa): 1235.4 ± 1.7 kg/m3
- mass density (313.15 K, 15924 kPa): 1238.4 ± 1.7 kg/m3
- mass density (313.15 K, 16925 kPa): 1241.4 ± 1.7 kg/m3
- mass density (313.15 K, 17931 kPa): 1244.2 ± 1.7 kg/m3
- mass density (313.15 K, 18933 kPa): 1247 ± 1.7 kg/m3
- mass density (313.15 K, 19934 kPa): 1249.8 ± 1.7 kg/m3
- mass density (313.15 K, 20940 kPa): 1252.5 ± 1.7 kg/m3
- mass density (313.15 K, 21945 kPa): 1255.1 ± 1.7 kg/m3
- mass density (313.15 K, 22953 kPa): 1257.8 ± 1.7 kg/m3
- mass density (313.15 K, 23961 kPa): 1260.4 ± 1.7 kg/m3
- mass density (313.15 K, 24962 kPa): 1262.9 ± 1.7 kg/m3
- mass density (313.15 K, 25963 kPa): 1265.3 ± 1.7 kg/m3
- mass density (313.15 K, 26966 kPa): 1267.7 ± 1.7 kg/m3
- mass density (313.15 K, 27968 kPa): 1270.1 ± 1.8 kg/m3
- mass density (313.15 K, 28969 kPa): 1272.5 ± 1.8 kg/m3
- mass density (313.15 K, 29976 kPa): 1274.8 ± 1.8 kg/m3
- mass density (313.15 K, 30978 kPa): 1277 ± 1.8 kg/m3
- mass density (313.15 K, 31986 kPa): 1279.3 ± 1.8 kg/m3
- mass density (313.15 K, 32992 kPa): 1281.6 ± 1.8 kg/m3
- mass density (313.15 K, 34000 kPa): 1283.8 ± 1.8 kg/m3
- specific volume (313.16 K, 219.8 kPa): 0.095 ± 0.001 m3/kg
- specific volume (315.15 K, 270.7 kPa): 0.076 ± 0.001 m3/kg
- specific volume (318.15 K, 86.3 kPa): 0.26 ± 0.005 m3/kg
- specific volume (318.15 K, 120 kPa): 0.185 ± 0.003 m3/kg
- specific volume (318.15 K, 195.2 kPa): 0.111 ± 0.001 m3/kg
- specific volume (318.15 K, 202.2 kPa): 0.107 ± 0.001 m3/kg
- specific volume (318.15 K, 224 kPa): 0.095 ± 0.001 m3/kg
- specific volume (320.15 K, 276.3 kPa): 0.076 ± 0.001 m3/kg
- mass density (323.14 K, 4763 kPa): 1174.1 ± 1.7 kg/m3
- mass density (323.14 K, 16843 kPa): 1218.6 ± 1.7 kg/m3
- mass density (323.14 K, 21889 kPa): 1233.7 ± 1.7 kg/m3
- mass density (323.14 K, 29946 kPa): 1254.9 ± 1.7 kg/m3
- mass density (323.14 K, 30956 kPa): 1257.3 ± 1.8 kg/m3
- specific volume (323.15 K, 87.8 kPa): 0.26 ± 0.005 m3/kg
- specific volume (323.15 K, 122.1 kPa): 0.185 ± 0.003 m3/kg
- specific volume (323.15 K, 198.9 kPa): 0.111 ± 0.001 m3/kg
- specific volume (323.15 K, 206 kPa): 0.107 ± 0.001 m3/kg
- specific volume (323.15 K, 228.3 kPa): 0.095 ± 0.001 m3/kg
- specific volume (323.15 K, 363.2 kPa): 0.057 ± 0.001 m3/kg
- mass density (323.15 K, 392 kPa): 1153.1 ± 1.7 kg/m3
- mass density (323.15 K, 686 kPa): 1154.6 ± 1.7 kg/m3
- mass density (323.15 K, 1702 kPa): 1159.8 ± 1.7 kg/m3
- mass density (323.15 K, 2712 kPa): 1164.7 ± 1.7 kg/m3
- mass density (323.15 K, 3731 kPa): 1169.5 ± 1.7 kg/m3
- mass density (323.15 K, 5778 kPa): 1178.4 ± 1.7 kg/m3
- mass density (323.15 K, 6786 kPa): 1182.7 ± 1.7 kg/m3
- mass density (323.15 K, 7786 kPa): 1186.7 ± 1.7 kg/m3
- mass density (323.15 K, 8786 kPa): 1190.6 ± 1.7 kg/m3
- mass density (323.15 K, 9791 kPa): 1194.4 ± 1.7 kg/m3
- mass density (323.15 K, 10796 kPa): 1198.2 ± 1.7 kg/m3
- mass density (323.15 K, 11803 kPa): 1201.8 ± 1.7 kg/m3
- mass density (323.15 K, 12805 kPa): 1205.3 ± 1.7 kg/m3
- mass density (323.15 K, 13812 kPa): 1208.8 ± 1.7 kg/m3
- mass density (323.15 K, 14822 kPa): 1212.1 ± 1.7 kg/m3
- mass density (323.15 K, 15831 kPa): 1215.4 ± 1.7 kg/m3
- mass density (323.15 K, 17849 kPa): 1221.7 ± 1.7 kg/m3
- mass density (323.15 K, 18857 kPa): 1224.9 ± 1.7 kg/m3
- mass density (323.15 K, 19866 kPa): 1227.9 ± 1.7 kg/m3
- mass density (323.15 K, 20875 kPa): 1230.8 ± 1.7 kg/m3
- mass density (323.15 K, 22900 kPa): 1236.5 ± 1.7 kg/m3
- mass density (323.15 K, 23908 kPa): 1239.3 ± 1.7 kg/m3
- mass density (323.15 K, 24908 kPa): 1242 ± 1.7 kg/m3
- mass density (323.15 K, 25914 kPa): 1244.6 ± 1.7 kg/m3
- mass density (323.15 K, 26926 kPa): 1247.3 ± 1.7 kg/m3
- mass density (323.15 K, 27933 kPa): 1249.8 ± 1.7 kg/m3
- mass density (323.15 K, 28945 kPa): 1252.4 ± 1.7 kg/m3
- mass density (323.15 K, 31966 kPa): 1259.8 ± 1.8 kg/m3
- mass density (323.15 K, 32979 kPa): 1262.2 ± 1.8 kg/m3
- mass density (323.15 K, 33992 kPa): 1264.5 ± 1.8 kg/m3
- specific volume (325.15 K, 281.9 kPa): 0.076 ± 0.001 m3/kg
- specific volume (328.15 K, 89.2 kPa): 0.26 ± 0.005 m3/kg
- specific volume (328.15 K, 124.1 kPa): 0.185 ± 0.003 m3/kg
